{"source": "patent US9511070B2", "about": "“Heterocyclyl carboxamides for treating viral diseases” (NOVADRUG, LLC, priority 2012, dated 2016)", "key": {"JFH-1 HCV": {"test_system": "JFH-1 HCV", "conditions": "viral titer at 5 μM or 15 μM compared to untreated control", "text": "In vitro assay for anti-HCV efficacy. HCV studies typically involve infected patients and chimpanzees. However, recently, a robust HCV infection system was developed with cells derived from the Huh-7 human hepatoma cell line. It is based on the unique JFH-1 HCV consensus cDNA derived from an HCV patient. Using reverse genetics, the infectious virus can be rescued from this HCV clone. The recovered viable JFH virus can be passaged serially in Huh-7 cells. For this reason, this system is amenable for evaluating the activity of test compound for their anti-HCV efficacy.\nBriefly, 6×10^3 Huh7-1 cells are incubated overnight in each well of collagen-coated BioCoat 96-well plates (BD Biosciences, Bedford, Mass.) in 0.2 ml 10% medium composed of Dulbecco's modified Eagle's medium supplemented with 10% fetal bovine serum. Subsequently, at 2 day intervals, the cultures are replenished with fresh 0.2 ml 10% medium. After the cultures become confluent, they continue to be replenished at 2 day intervals with fresh 0.2 ml 10% medium that also includes 1% dimethyl sulfoxide (DMSO). After 20 days of these replenishments, the Huh7-1 cultures are incubated with fresh 1% medium (same as 10% medium except that the serum level is 1%) containing HCV at a multiplicity of infection (MOI) of 0.05 focus forming units (ffu)/cell. The HCV (JFH-lwt Huh7) stock titer is 1.5×10^5 ffu/mL. The next day (day 1 post-infection) and 2 days later (day 3 post-infection) the media are replenished with fresh 1% medium containing the test compounds dissolved in DMSO. On the 5th day of treatment with the compounds, cell lysates are collected for RNA isolation and Real Time-quantitative Reverse Transcription Polymerase Chain Reaction (RT-qPCR) and culture media are collected for cytotoxicity analysis.\nTotal RNA is isolated from cells by the guanidine thiocyanate method using standard protocols. One μg RNA is used for cDNA synthesis using TaqMan reverse transcription reagents (Applied Biosystems, Foster City, Calif.) followed by real-time PCR using an Applied Biosystems 7300 real-time thermocycler. Thermal cycling consists of initial denaturation of 10 min at 95° C. followed by 40 cycles of denaturation (15 s at 95° C.) and annealing/extension (1 m at 60° C.). HCV and human glyceraldehyde-3-phosphate dehydrogenase (GAPDH) RNA levels are determined relative to a standard curve of serial dilutions of plasmid containing JFH-1 HCV or GAPDH cDNA. The PCR primers used to detect GAPDH and HCV are: GAPDH (NMX002046) 5′-[…]-3′(SEQ ID NO: 16) (sense) and 5′-[…]-3′(SEQ ID NO: 17) (anti-sense) JFH-1 HCV (AB047639) 5′-[…]-3′(SEQ ID NO: 18) (sense) and 5′-[…]-3′(SEQ ID NO: 19) (anti-sense)."}, "HIV-Bal [1]": {"test_system": "HIV-Bal", "assay": "HIV entry (real time RT-PCR of HIV LTR in pre-treated PBMCs)", "format": "cell-based, HIV-1", "conditions": "10 μM or 25 μM; PBMCs pre-treated 1 h and 4 h", "text": "The following primers are used to amplify HIV transcripts: HIV LTR, Forward 5′-[…] (SEQ ID NO: 1) and Reverse 5′-[…] (SEQ ID NO: 2) and GAPDH—Forward 5′-[…] (SEQ ID NO: 3) and Reverse 5′-[…] (SEQ ID NO: 4). GADPH is used as endogenous control."}, "HIV-Bal [2]": {"test_system": "HIV-Bal", "assay": "HIV reverse transcription assay (2LTR circles in infected PBMCs)", "format": "cell-based, HIV-1", "conditions": "72 h post-infection; in comparison with vehicle (DMSO)", "method": "HIV reverse transcription assay. Compounds described herein inhibit 2LTR circles. Stimulated PBMCs are infected with HIV-Bal (2 ng/mL per 10^6 cells) for 5 h. PBMCs are then treated with compounds at desired concentrations and AZT (control) for 72 h post-infection. The cells are then washed three times with media and genomic DNA is prepared from samples using DNeasy Blood and Tissue Kit (Qiagen). For real time PCR analysis, the following primers are used to amplify 2LTR circles (by-products of reverse transcription): Forward 5′-[…] (SEQ ID NO: 5) and Reverse 5′-[…] (SEQ ID NO: 6). […] All results represent two or three independent experiments each performed in quadruplicates; *=p<0.05, **=p<0.01, ***=p<0.001 in comparison with vehicle ([…])."}, "HIV-Bal [3]": {"test_system": "HIV-Bal", "assay": "HIV genomic DNA integration (ALU-PCR in infected PBMCs)", "format": "cell-based, HIV-1", "conditions": "72 h post-infection; in comparison with vehicle (DMSO)", "method": "HIV Genomic DNA Integration. […] Stimulated PBMCs are infected with HIV-Bal (2 ng/mL per 10^6 cells) for 5 h. The PBMCs are then treated with compounds at desired concentrations and AZT (control) for 72 h post-infection. The cells are then washed three times with media. Genomic DNA is prepared from samples using DNeasy Blood and Tissue Kit (Qiagen). ALU-PCR is performed followed by real time PCR to quantify integrated viral genome. The following primers are used to amplify HIV transcripts: HIV LTR, Forward 5′-[…] (SEQ ID NO: 1) and Reverse 5′-[…] (SEQ ID NO: 2) and GAPDH—Forward 5′-[…] (SEQ ID NO: 3) and Reverse 5′-[…] (SEQ ID NO: 4). GADPH is used as endogenous control."}, "HIV-Bal [4]": {"test_system": "HIV-Bal", "assay": "HIV transcription (Rev, Gag and Env transcripts in infected PBMCs)", "format": "cell-based, HIV-1", "conditions": "72 h post-infection; in comparison with vehicle (DMSO)", "method": "HIV transcription. […] Stimulated PBMCs are infected with HIV-Bal (2 ng/mL per 10^6 cells) for 4-6 h. PBMCs are then treated with compounds at desired concentrations and AZT (control) for 72 h post-infection. The cells are then washed three times with media and genomic RNA is prepared from samples using RNEasy MiniKit (Qiagen). Real time RT-PCR is performed to detect mature viral early (Rev) and late transcripts (Gag and Env). The following primers are used to amplify HIV transcripts: Rev, Forward 5′-[…] (SEQ ID NO: 7) and Reverse 5′-[…] (SEQ ID NO: 8); Env, Forward 5′-[…] (SEQ ID NO: 9) and Reverse 5′-[…] (SEQ ID NO: 10); Gag, Forward 5′-[…] (SEQ ID NO: 11) and Reverse 5′-[…] (SEQ ID NO: 12); GAPDH, Forward 5′-[…] (SEQ ID NO: 3) and Reverse 5′-[…] (SEQ ID NO: 4). GADPH is used as endogenous control."}, "[5]": {"test_system": "Bovine Viral Diarrhea Virus strain NADL", "assay": "Anti-BVDV efficacy, cytopathic (CPE) assay in Bovine Turbinate cells (MTT)", "format": "cell-based", "conditions": "cell survival at 10 μM compared to untreated control; TABLE 4(a)", "method": "Assay for Anti-BVDV efficacy. Bovine Turbinate (BT) cells maintained as monolayers in disposable cell culture labware are used for the antiviral efficacy test. Prior to testing, host cell cultures are seeded onto the 96-well cell culture plates and used approximately 48 hours after seeding. […] The growth medium (GM) and maintenance medium (MM) include Dulbecco's Modified Eagle Media (DMEM) with L-glutamine (ATCC #30-2002), 10% Horse serum and penicillin/streptomycin (10,000 units of penicillin and 10,000 μg of streptomycin per mL, Life Technologies #15140-122 or similar) for a final concentration of 100 units penicillin and 100 μg streptomycin in the medium. Bovine Viral Diarrhea Virus strain NADL from BSLI high-titer virus stock is used. Prior to use, aliquots of the stock virus are removed and thawed from a −70° C. freezer. The BVDV is diluted in a maintenance medium (MM) to obtain 0.1 Multiplicity of Infection (MOI). Cytopathic (CPE) assay. CPE refers to degenerative changes in BT tissue culture induced by BVDV as a consequence of its multiplication. BT cell cultures are washed with PBS, and 100 μL aliquots of MM are added to the cells and incubated in a CO2 incubator for 2 hours. After incubation, the MM is removed; the cells washed again with PBS and overlaid with 100 μL of the different concentrations of test compounds. The plates are incubated in a CO2 incubator for 48 to 72 hours. […] This assay is a colorimetric assay that measures the activity of enzymes that reduce MTT to the purple color formazan dye. CPE is confirmed using an Inverted Compound Microscope."}}, "note": "“Also recorded” adds a separate entry of the source.", "data": [{"smiles": "CC#CC(=O)N1CCC(C(=O)Nc2cccc(-c3cc4ccccc4[nH]3)c2)CC1", "note": "[Example 57]", "values": [{"measurement": "HCV Antiviral Activity", "setting": "JFH-1 HCV", "value": "++ (“++” corresponds to ≦60% viral titer at 5 μM)"}, {"measurement": "effect on HIV entry", "setting": "HIV-Bal [1]", "value": "did not have an effect on HIV entry"}, {"measurement": "inhibition of HIV reverse transcription (2LTR circles)", "setting": "HIV-Bal [2]", "value": "significantly inhibits HIV reverse transcription"}, {"measurement": "inhibition of HIV viral integration", "setting": "HIV-Bal [3]", "value": "significantly inhibits viral integration at each concentration; also recorded: significantly inhibits HIV viral integration"}, {"measurement": "inhibition of HIV transcription (Rev, Gag, Env)", "setting": "HIV-Bal [4]", "value": "significantly inhibits viral transcription at each concentration; also recorded: significantly inhibits HIV transcription"}, {"measurement": "BVDV Antiviral Activity", "setting": "[5]", "value": "+++ (“+++” corresponds to ≧75 cell survival at 10 μM)"}]}]}
